6 compounds from patent US7351728B2, “Oxazolyl-aryloxyacetic acid derivatives and their use as PPAR agonists” (Eli Lilly and Company, priority 2003, dated 2008) can be followed below.

Usually melting point stands for the temperature, or range, at which the solid turns liquid.

One data set has as its system db/db mice. The data set can be described thus: Evaluation of glucose levels in db/db mice. In kind it is in vivo. As to conditions: Mus musculus, 168 h; 30 mg/kg daily oral gavage 7 days, male db/db mice; 100% = lean values; read-out: Glucose Normalization %. Here is the method:
Five week old male diabetic (db/db) mice [C57BlKs/j-m +/+ Lepr(db), Jackson Laboratory, Bar Harbor, Me.] or lean littermates (db+) were housed 6 per cage (10″×20″×8″ with aspen chip bedding) with food (Purina 5015) and water available at all times. After an acclimation period of 2 weeks, animals were individually identified by ear notches, weighed, and bled via the tail vein for determination of initial glucose levels. Blood was collected (100 μl) from unfasted animals by wrapping each mouse in a towel, cutting the tip of the tail with a scalpel, and milking blood from the tail into a heparinized capillary tube (Fisher) balanced on the edge of the bench. Sample was discharged into a heparinized microtainer with gel separator (VWR) and retained on ice. Plasma was obtained after centrifugation at 4° C. and glucose measured immediately. Remaining plasma was frozen until the completion of the experiment, when glucose and triglycerides were assayed in all samples. Animals were grouped based on initial glucose levels and body weights. Beginning the following morning, mice were dosed daily by oral gavage for 7 days using a 20 gauge, 1½″ curved disposable feeding needle. Treatments were test compounds (30 mg/kg), a positive control agent (30 mg/kg) or vehicle [1% carboxymethylcellulose (w/v)/0.25% Tween80 (w/v); 0.3 ml/mouse]. On day 7, mice were weighed and bled (tail vein) 3 hours after dosing. Twenty-four hours after the 7th dose (i.e., day 8), animals were bled again (tail vein). Samples obtained from conscious animals on days 0, 7 and 8 were assayed for glucose. After the 24 hour bleed, animals were weighed and dosed for the final time. Three hours after dosing on day 8, animals were anesthetized by inhalation of isoflurane and blood obtained via cardiac puncture (0.5-0.7 ml). Whole blood was transferred to serum separator tubes, chilled on ice and permitted to clot. Serum was obtained after centrifugation at 4° C. and frozen until analysis for compound levels. After sacrifice by cervical dislocation, the liver, heart and epididymal fat pads were excised and weighed.
The animals dosed with vehicle had average triglycerides values of 170-230 mg/dl, which were reduced by the positive PPARγ control (70-120 mg/dl with a mean reduction of 50%). Male db/db mice were hyperglycemic (average glucose of 680-730 mg/dl on the 7th day of treatment), while lean animals had average glucose levels between 190-230 mg/dl.
Glucose was measured colorimetrically using commercially purchased reagents (Sigma #315-500). According to the manufacturers, the procedures were modified from published work (McGowan, M. W., Artiss, J. D., Strandbergh, D. R. & Zak, B. Clin Chem, 20:470-5 (1974) and Keston, A. Specific colorimetric enzymatic analytical reagents for glucose. Abstract of papers 129th Meeting ACS, 31C (1956).); and depend on the release of a mole of hydrogen peroxide for each mole of analyte, coupled with a color reaction first described by Trinder (Trinder, P. Determination of glucose in blood using glucose oxidase with an alternative oxygen acceptor. Ann Clin Biochem, 6:24 (1969)). The absorbance of the dye produced is linearly related to the analyte in the sample. The assays were further modified in our laboratory for use in a 96 well format. Standards (Sigma #339-11, Sigma #16-11, and Sigma #CC0534 for glucose triglycerides and total cholesterol, respectively), quality control plasma (Sigma # A2034), and samples (2 or 5 μl/well) were measured in duplicate using 200 μl of reagent. An additional aliquot of sample, pipetted to a third well and diluted in 200 μl water, provided a blank for each specimen. Plates were incubated at room temperature (18, 15, and 10 minutes for glucose, triglycerides and total cholesterol, respectively) on a plate shaker (DPC Micormix 5) and absorbance read at 500 nm (glucose and total cholesterol) or 540 nm (triglycerides) on a plate reader (Wallac Victor 1420). […]

The test system of another data set is HuapoAI transgenic mice. Put plainly: Evaluation of triglyceride and cholesterol level in HuapoAI transgenic mice. Type of data set: in vivo. As to conditions: for change in vivo at 30 mg/kg / inhibition in vivo at 30 mg/kg: Mus musculus, 168 h, 30 mg/kg daily oral gavage 7 days; for change in vivo at 30 mg/kg: percent increase in FPLC HDLc area under the curve; for inhibition in vivo at 30 mg/kg: serum, male human apoAI transgenic mice, read-out: % Triglyceride Reduction. As to the method:
Five to six week old male mice, transgenic for human apoAI [C57Bl/6-tgn(apoa1)lrub, Jackson Laboratory, Bar Harbor, Me.] were housed five per cage (10″×20″×8″ with aspen chip bedding) with food (Purina 5001) and water available at all times. After an acclimation period of 2 weeks, animals were individually identified by ear notches, weighed, and assigned to groups based on body weight. Beginning the following morning, mice were dosed daily by oral gavage for 7 days using a 20 gauge, 1½″ curved disposable feeding needle (Popper & Sons). Treatments were test compounds (30 mg/kg), a positive control (fenofibrate, 100 mg/kg) or vehicle [1% carboxymethylcellulose (w/v)/0.25% Tween80 (w/v); 0.2 ml/mouse]. Prior to termination on day 7, mice were weighed and dosed. Three hours after dosing, animals were anesthetized by inhalation of isoflurane (2-4%; Abbott Laboratories, Chicago, Ill.) and blood obtained via cardiac puncture (0.7-1.0 ml). Whole blood was transferred to serum separator tubes (Vacutainer SST), chilled on ice, and permitted to clot. Serum was obtained after centrifugation at 4° C. and frozen until analysis for triglycerides, total cholesterol, compound levels, and serum lipoprotein profile by fast protein liquid chromatography (FPLC) coupled to an inline detection system. After sacrifice by cervical dislocation, the liver, heart and epididymal fat pads were excised and weighed.
The animals dosed with vehicle had average triglycerides values of 60-80 mg/dl, which were reduced by the positive control fenofibrate (33-58 mg/dl with a mean reduction of 37%). The animals dosed with vehicle had average total serum cholesterol values of 140-180 mg/dl, which were increased by fenofibrate (190-280 mg/dl, with a mean elevation of 41%). […] Fenofibrate increased the amount of HDLc (68-96 v-sec with a mean percent increase of 48%).
Glucose was measured colorimetrically using commercially purchased reagents (Sigma #315-500). According to the manufacturers, the procedures were modified from published work (McGowan, M. W., Artiss, J. D., Strandbergh, D. R. & Zak, B. Clin Chem, 20:470-5 (1974) and Keston, A. Specific colorimetric enzymatic analytical reagents for glucose. Abstract of papers 129th Meeting ACS, 31C (1956).); and depend on the release of a mole of hydrogen peroxide for each mole of analyte, coupled with a color reaction first described by Trinder (Trinder, P. Determination of glucose in blood using glucose oxidase with an alternative oxygen acceptor. Ann Clin Biochem, 6:24 (1969)). The absorbance of the dye produced is linearly related to the analyte in the sample. The assays were further modified in our laboratory for use in a 96 well format. Standards (Sigma #339-11, Sigma #16-11, and Sigma #CC0534 for glucose triglycerides and total cholesterol, respectively), quality control plasma (Sigma # A2034), and samples (2 or 5 μl/well) were measured in duplicate using 200 μl of reagent. An additional aliquot of sample, pipetted to a third well and diluted in 200 μl water, provided a blank for each specimen. Plates were incubated at room temperature (18, 15, and 10 minutes for glucose, triglycerides and total cholesterol, respectively) on a plate shaker (DPC Micormix 5) and absorbance read at 500 nm (glucose and total cholesterol) or 540 nm (triglycerides) on a plate reader (Wallac Victor 1420). Sample absorbances were compared to a standard curve (100-800, 10-500, and 100-400 mg/dl for glucose, triglycerides and total cholesterol, respectively). Values for the quality control sample were always within the expected range and the coefficient of variation for samples was below 10%. All samples from an experiment were assayed at the same time to minimize inter-assay variability.
Serum lipoproteins were separated and cholesterol quantitated with an in-line detection system. Sample was applied to a Superose® 6 HR 10/30 size exclusion column (Amersham Pharmacia Biotech) and eluted with phosphate buffered saline-EDTA at 0.5 ml/min. […]

A further data set deals with huPPARα. The data set can be described thus: Cotransfection assay in CV-1 cells, luciferase reporter (GAL4 chimeric system). The conditions noted are these: cotransfection efficacy relative to PPARα agonist reference molecule. Type of data set: cell-based, human. Here is the method:
(§1) DNA-dependent binding (ABCD binding) was carried out using SPA technology with PPAR receptors. Tritium-labeled PPARα and PPARγ agonists were used as radioligands for generating displacement curves and IC50 values with compounds of the invention. Cotransfection assays were carried out in CV-1 cells. The reporter plasmid contained an acylCoA oxidase (AOX) PPRE and TK promoter upstream of the luciferase reporter cDNA. Appropriate PPARs and RXRα were constitutively expressed using plasmids containing the CMV promoter. […] In order to eliminate such interference, a GAL4 chimeric system was used in which the DNA binding domain of the transfected PPAR was replaced by that of GAL4, and the GAL4 response element was utilized in place of the AOX PPRE. Cotransfection efficacy was determined relative to PPARα agonist and PPARγ agonist reference molecules. Efficacies were determined by computer fit to a concentration-response curve, or in some cases at a single high concentration of agonist (10 μM). For binding or cotransfection studies with receptors other than PPARs, similar assays were carried out using appropriate ligands, receptors, reporter constructs, etc., for that particular receptor.
(§2) These studies were carried out to evaluate the ability of compounds of the invention to bind to and/or activate various nuclear transcription factors, particularly huPPARα (“hu” indicates “human”) and huPPARγ. These studies provide in vitro data concerning efficacy and selectivity of compounds of the invention. Furthermore, binding and cotransfection data for compounds of the invention were compared with corresponding data for marketed compounds that act on either huPPARα or huPPARγ.
(§3) Binding and cotransfection data for representative compounds of the invention are compared with corresponding data for reference compounds in Table II.
On the technique in general: Reporter assays use an easily measured gene product as a stand-in for the process of interest.

The next data set deals with T1, huPPARγ (Homo sapiens, UniProt P37231).
T1 sequence (P37231 1-505): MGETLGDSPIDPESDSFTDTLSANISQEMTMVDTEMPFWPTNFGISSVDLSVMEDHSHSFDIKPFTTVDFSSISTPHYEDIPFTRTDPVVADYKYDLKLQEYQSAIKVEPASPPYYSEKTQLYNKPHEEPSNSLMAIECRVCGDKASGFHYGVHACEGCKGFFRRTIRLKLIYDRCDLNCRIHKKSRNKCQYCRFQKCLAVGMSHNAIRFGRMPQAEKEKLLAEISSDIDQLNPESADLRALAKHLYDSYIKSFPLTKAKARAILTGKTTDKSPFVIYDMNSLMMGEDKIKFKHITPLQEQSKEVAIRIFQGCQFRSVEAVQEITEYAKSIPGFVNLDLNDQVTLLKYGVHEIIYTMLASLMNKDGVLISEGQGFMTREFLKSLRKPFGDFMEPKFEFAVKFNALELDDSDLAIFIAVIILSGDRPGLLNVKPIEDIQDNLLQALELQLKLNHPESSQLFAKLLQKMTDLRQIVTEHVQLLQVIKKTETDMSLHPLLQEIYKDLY
T1 sequence (P19793 1-462 partner): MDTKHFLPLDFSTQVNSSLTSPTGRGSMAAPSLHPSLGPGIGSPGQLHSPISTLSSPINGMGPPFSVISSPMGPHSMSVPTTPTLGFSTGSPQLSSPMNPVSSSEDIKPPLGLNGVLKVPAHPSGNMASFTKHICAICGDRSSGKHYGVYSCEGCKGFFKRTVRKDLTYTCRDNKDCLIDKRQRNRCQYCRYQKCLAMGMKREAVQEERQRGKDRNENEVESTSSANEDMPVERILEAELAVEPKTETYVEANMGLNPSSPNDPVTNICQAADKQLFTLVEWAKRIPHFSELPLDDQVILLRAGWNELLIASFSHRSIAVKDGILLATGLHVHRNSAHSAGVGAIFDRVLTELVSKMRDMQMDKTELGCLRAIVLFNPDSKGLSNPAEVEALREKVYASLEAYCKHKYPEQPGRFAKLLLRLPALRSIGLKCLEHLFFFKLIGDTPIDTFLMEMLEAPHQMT
The data set can be described thus: Cotransfection assay in CV-1 cells, AOX PPRE luciferase reporter. Details: expressed in transfected cells; host or cells: CV-1 cells. In kind it is cell-based. The conditions noted are these: cotransfection efficacy relative to PPARγ agonist reference molecule. Here is the method: as §1, §2, §3

The mark [1] stands for this setting: 100 mg/kg daily oral gavage 7 days, versus vehicle.

`Cc1oc(-c2ccc(C(N)=O)cc2)nc1CCOc1ccc(OC(C)(C)C(=O)O)cc1` [Example 14, 2-(4-{2-[2-(4-Carbamoylphenyl)-5-methyloxazol-4-yl]ethoxy}phenoxy)-2-methylpropionic acid]: the melting point lay in the range of 126 to 127 °C.

As to `CCc1cc(OC(C)(C)C(=O)O)ccc1OCCc1nc(-c2ccccc2)oc1C` [Example 31A, 2-{3-Ethyl-4-[2-(5-methyl-2-phenyloxazol-4-yl)ethoxy]phenoxy}-2-methylpropionic acid], the results for the inhibition in vivo at 30 mg/kg in the data set with db/db mice and in the data set on HuapoAI transgenic mice were 19% and -6.4%, respectively. The same compound returned a change in vivo at 30 mg/kg in the data set with HuapoAI transgenic mice of 98%.

On to `Cc1oc(-c2ccccc2)nc1CCOc1ccc(OC(C)(Cc2ccccc2)C(=O)O)cc1` (stereo not shown) [Example 6, 2-Methyl-2-{4-[2-(5-methyl-2-phenyloxazol-4-yl)ethoxy]phenoxy}-3-phenylpropionic acid], for which the inhibition in vivo at 30 mg/kg in the data set with db/db mice came to 65%. Also, in the data set on HuapoAI transgenic mice, the change in vivo at 30 mg/kg worked out at 20% and the inhibition in vivo at 30 mg/kg came out at 35.4%.

Regarding `CC(C)(Oc1ccc(C(=O)c2ccc(Cl)cc2)cc1)C(=O)O` [Fenofibric acid, reference compound], the “huPPARα CTF Eff. (%)” value in the data set on huPPARα is listed as 16%. The “huPPARγ CTF Eff. (%)” value at huPPARγ was 0%.

For the compound `CC(C)OC(=O)C(C)(C)Oc1ccc(C(=O)c2ccc(Cl)cc2)cc1` [fenofibrate, reference compound], the HDLc peak area with HuapoAI transgenic mice (100 mg/kg daily oral gavage 7 days, FPLC of pooled sera, vehicle 47-62 v-sec) is given as 68-96 v-sec. Moreover, in the data set on HuapoAI transgenic mice (setting [1]), the “mean elevation of total serum cholesterol” value was determined as 41%, the “mean percent increase of HDLc” value is on record as 48% and the “mean reduction of triglycerides” value is listed as 37%. Besides, the average triglycerides values in the data set with HuapoAI transgenic mice (100 mg/kg daily oral gavage 7 days, vehicle 60-80 mg/dl) was in the range of 33 to 58 mg/dL. For the same compound, in the data set with HuapoAI transgenic mice (100 mg/kg daily oral gavage 7 days, vehicle 140-180 mg/dl), the “average total serum cholesterol values” was in the range of 190 to 280 mg/dL.

For `Cc1c(C)c2c(c(C)c1O)CCC(C)(COc1ccc(CC3SC(=O)NC3=O)cc1)O2` (stereo not shown) [Troglitazone, reference compound], the “huPPARα CTF Eff. (%)” value in the data set on huPPARα was found to be 0%.
